Reference: ChEMBL document CHEMBL3046916, “ROLE OF INTERMEDIARY BIOMARKERS IN DETERMINING THE ANTICANCER EFFICACY OF MARINE COMPOUNDS” (2004)
Active and inactive are the calls of the source. No cut-off for these calls is given here.

Key:
Format in all cases: functional
MCF7 [1] = experiment: Increase of benzo[alpha]pyrene-DNA adduct formation in Homo sapiens (human) MCF7 cells at 50 uM treated for 24 hr before benzo[alpha]pyrene addition measured after 24 hr by 32P-postlabeling technique relative to control
MCF7 [2] = experiment: Inhibition of residual DNA repair ability in Homo sapiens (human) MCF7 cells assessed as plaque forming unit at 50 uM followed by irradiated with 200 Jm'-2 of UV after 24 hr by host cell reactivation assay relative to control
MCF7 [3] = experiment: Inhibition of residual DNA repair ability in Homo sapiens (human) MCF7 cells assessed as plaque forming unit at 50 uM followed by irradiated with 100 Jm'-2 of UV after 24 hr by host cell reactivation assay relative to control
MCF7 [4] = experiment: Inhibition of residual DNA repair ability in Homo sapiens (human) MCF7 cells assessed as plaque forming unit at 50 uM followed by irradiated with 50 Jm'-2 of UV after 24 hr by host cell reactivation assay relative to control
MCF7 [5] = experiment: Decrease of p16 protein expression in Homo sapiens (human) MCF7 cells at 50 uM followed by irradiated with UV after 4 hr by Western blot analysis relative to control; design: scale not given: the % may be the effect or the level left
MCF7 [6] = experiment: Decrease of p53 protein expression in Homo sapiens (human) MCF7 cells at 50 uM followed by irradiated with UV after 4 hr by Western blot analysis relative to control; design: scale not given: the % may be the effect or the level left
MCF7 [7] = experiment: Decrease of p21 protein expression in Homo sapiens (human) MCF7 cells at 50 uM followed by irradiated with UV after 4 hr by Western blot analysis relative to control; design: scale not given: the % may be the effect or the level left
MCF7 [8] = experiment: Increase of benzo[alpha]pyrene-DNA adduct formation in Homo sapiens (human) MCF7 cells at 100 uM treated for 24 hr before benzo[alpha]pyrene addition measured after 24 hr by 32P-postlabeling technique relative to control

| Structure (SMILES) | fold change (FC) (MCF7 [1]) | %PFU (MCF7 [2]) [%] | %PFU (MCF7 [3]) [%] | %PFU (MCF7 [4]) [%] | Activity (MCF7 [5]) [%] | Activity (MCF7 [6]) [%] | Activity (MCF7 [7]) [%] | Activity (MCF7 [1]) | fold change (FC) (MCF7 [8]) |
| --- | --- | --- | --- | --- | --- | --- | --- | --- | --- |
| O[C@]12C=C(c3nccc4c3[nH]c3ccccc34)[C@@H]3CCN(CCCC/C=C\CC1)C[C@@]31C[C@@H]3/C=C\CCCCN3[C@H]12 [MANZAMINE A] | 2 | 9 | 15 | 46 | 89 | 63 | 80 |  |  |
| CC1=C2CC/C(C)=C/CC[C@]3(C)O[C@H]3CC/C(C)=C/[C@@H]2OC1=O [SARCOPHINE] |  | 24 | 38 | 69 | 96 | 90 | 120 | inactive | 2 |
